Data on 20 compounds can be found in patent US20240101572A1, “DIHYDROOXADIAZINONE COMPOUND AND PHARMACEUTICAL USE THEREOF” (Japan Tobacco Inc., priority 2022, published 2024).

Read-outs that look alike come from different tables or passages of the source.

One test deals with full-length human PLD1 (Homo sapiens (Human), UniProt Q13393). As to the kind of experiment: Evaluation of human PLD1 enzyme inhibitory activity (Amplex Red / choline oxidase fluorescence). In kind it is biochemical. On the procedure:
A method for measuring human PLD1 enzyme inhibitory activity using an enzyme in which a FLAG-tag is added to the N-terminus of full-length human PLD1 (1-1036 amino acids) is shown below.
(§1) DNA fragment in which a FLAG-tag sequence is added to the 5′-end of full-length human PLD1 was amplified by PCR method, using commercially available human PLD1 gene (Promega KK) as a template. The amplified DNA fragment was fused with vector pVL1393 for baculovirus production (Pharmingen) digested with BamHI and EcoRI, using In-Fusion HD Cloning Kit (Takara Bio). The full-length human PLD1-expression plasmid DNA for baculovirus was isolated from Escherichia coli DH5a (TOYOBO) transformed with the obtained In-Fusion reaction product. Next, DNA fragment in which a FLAG-tag sequence is added to the 5′-end of full-length human PLD1 was amplified by PCR method, using the full-length human PLD1-expression plasmid DNA for baculovirus as a template. The amplified DNA fragment was fused with a DNA fragment in which a linker sequence is introduced into pcDNA3.4-TOPO (Life Technologies), using In-Fusion HD Cloning Kit (Takara Bio). The full-length human PLD1-expression plasmid DNA for animal cells was isolated from Escherichia coli DH5a transformed with the obtained In-Fusion reaction product. The base sequence of the full-length human PLD1 cloned into vector was determined by a Dye Terminator method using BigDye Terminator v3.1 Cycle Sequencing Kit (Applied Biosystems). The determined sequence was a sequence in which the FLAG-tag sequence was inserted at the 5′-end of the full-length human PLD1 (GenBank Accession Number: NM_001130081).
(§2) Expi293F cells (Life Technologies) were cultured with shaking using Expi293 Expression Medium (Life Technologies) as a medium at 37° C. in the presence of 8% CO2. The gene introduction reagent PEI was prepared by dissolving Polyethylenimine Max (nominally MW 40,000) (Polysciences) in MilliQ water, adjusting the pH of the solution to 7.0 with NaOH to obtain a 1 mg/mL solution, and then filtering the solution through 0.22 μm filter. The full-length human PLD1-expression plasmid DNA for animal cells was transfected into Expi293F cells using PEI, and after 48 hours of shaking culture, the cells were collected and stored at −80° C.
(§3) To the full-length human PLD1-expressed cells was added a Homogenate buffer (20 mmol/L Na-phosphate pH 7.5, 250 mmol/L NaCl, 1 mmol/L MgCl2, 1% β-OG, 0.05 mmol/L DTT+complete EDTA-free (Roche Diagnostics K.K.)), and the cells were lysed by Microfluidizer Processor M-110EH (Mizuho Kogyo Co., Ltd.). The lysate was centrifuged at 10,100×g at 4° C. for 15 minutes, and the supernatant was collected and filtered through 0.45 μm filter. To the centrifuged supernatant was added ANTI-FLAG M2 Affinity Gel (SIGMA-Aldrich) resin equilibrated with a Homogenate buffer, and the mixed solution was stirred at 4° C. for 1 hr or more. The mixed solution was loaded onto Poly-Prep column, and the resin was washed with a Wash buffer (20 mmol/L Na-phosphate pH 7.5, 150 mmol/L NaCl, 1 mmol/L MgCl2, 0.02% Triton, 0.05 mmol/L DTT). A Wash buffer containing 400 μg/mL DYKDDDDK Peptide (Scrum Inc.) was added to the column to elute the protein bound to the resin. The eluted fractions were subjected to SDS-PAGE followed by CBB staining to identify the fractions containing the full-length human PLD1. The eluted fractions of the full-length human PLD1 were collected and concentrated using Amicon Ultra-15 100k (Merck Millipore). The concentrated fractions were collected, flash-frozen in liquid nitrogen and stored at −80° C.
(§4) A DMSO or test substance solution (the DMSO final concentration: 5%) prepared by diluting DMSO or test substance with an Assay buffer (50 mmol/L HEPES pH 7.5, 80 mmol/L KCl, 3 mmol/L EGTA, 3.6 mmol/L MgCl2, 0.01% NP-40, 0.1% BSA), and the solution was added to a 384 well Assay Plate (Black, Polystyrene, Non-Treated, Cat No. 3573, Corning) by 5 μL/well. […]

A further test deals with full-length human PLD2 (Homo sapiens (Human), UniProt O14939). As to the kind of experiment: Evaluation of human PLD2 enzyme inhibitory activity (Amplex Red / choline oxidase fluorescence). Type of test: biochemical. On the procedure:
A method for measuring human PLD2 enzyme inhibitory activity using an enzyme in which a FLAG-tag is added to the N-terminus of full-length human PLD2 (1-933 amino acids) is shown below.
as §1, with “PLD2” for “PLD1”, “PLD2-expression” for “PLD1-expression”, “NM 002663).” for “NM_001130081).”
as §2, with “PLD2-expression” for “PLD1-expression”
as §3, with “PLD2-expressed” for “PLD1-expressed”, “PLD2.” for “PLD1.”, “PLD2” for “PLD1”
as §4

Where [1] appears, read: full-length human PLD1 enzyme, read-out: PLD1 IC50.
The mark [2] stands for this setting: full-length human PLD2 enzyme, read-out: PLD2 IC50.

Sequence of full-length human PLD2 (O14939 whole entry, the tested form may be a part): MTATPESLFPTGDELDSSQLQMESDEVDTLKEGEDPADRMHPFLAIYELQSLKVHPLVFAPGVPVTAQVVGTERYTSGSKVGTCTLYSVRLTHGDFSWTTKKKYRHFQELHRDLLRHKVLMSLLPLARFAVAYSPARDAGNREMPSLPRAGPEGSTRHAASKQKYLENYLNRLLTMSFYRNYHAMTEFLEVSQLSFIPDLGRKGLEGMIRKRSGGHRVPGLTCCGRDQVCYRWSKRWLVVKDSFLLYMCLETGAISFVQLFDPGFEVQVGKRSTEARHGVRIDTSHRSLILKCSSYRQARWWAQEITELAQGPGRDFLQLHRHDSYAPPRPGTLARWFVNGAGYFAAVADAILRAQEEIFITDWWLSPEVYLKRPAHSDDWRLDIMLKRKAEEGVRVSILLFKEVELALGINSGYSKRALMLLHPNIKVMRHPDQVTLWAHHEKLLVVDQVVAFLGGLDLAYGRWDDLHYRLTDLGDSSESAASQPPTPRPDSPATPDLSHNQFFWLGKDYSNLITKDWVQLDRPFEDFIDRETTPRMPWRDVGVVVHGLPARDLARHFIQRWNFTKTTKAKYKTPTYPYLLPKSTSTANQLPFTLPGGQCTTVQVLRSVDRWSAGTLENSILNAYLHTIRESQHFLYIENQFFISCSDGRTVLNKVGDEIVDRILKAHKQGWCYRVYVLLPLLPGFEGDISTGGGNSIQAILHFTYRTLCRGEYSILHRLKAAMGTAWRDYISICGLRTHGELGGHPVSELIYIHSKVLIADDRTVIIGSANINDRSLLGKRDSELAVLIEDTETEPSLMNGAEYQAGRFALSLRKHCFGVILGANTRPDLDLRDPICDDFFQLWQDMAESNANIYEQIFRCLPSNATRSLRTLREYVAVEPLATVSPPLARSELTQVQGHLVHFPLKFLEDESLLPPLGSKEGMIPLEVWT
Sequence of full-length human PLD1 (Q13393 other isoform, or with tags, fused parts or gaps): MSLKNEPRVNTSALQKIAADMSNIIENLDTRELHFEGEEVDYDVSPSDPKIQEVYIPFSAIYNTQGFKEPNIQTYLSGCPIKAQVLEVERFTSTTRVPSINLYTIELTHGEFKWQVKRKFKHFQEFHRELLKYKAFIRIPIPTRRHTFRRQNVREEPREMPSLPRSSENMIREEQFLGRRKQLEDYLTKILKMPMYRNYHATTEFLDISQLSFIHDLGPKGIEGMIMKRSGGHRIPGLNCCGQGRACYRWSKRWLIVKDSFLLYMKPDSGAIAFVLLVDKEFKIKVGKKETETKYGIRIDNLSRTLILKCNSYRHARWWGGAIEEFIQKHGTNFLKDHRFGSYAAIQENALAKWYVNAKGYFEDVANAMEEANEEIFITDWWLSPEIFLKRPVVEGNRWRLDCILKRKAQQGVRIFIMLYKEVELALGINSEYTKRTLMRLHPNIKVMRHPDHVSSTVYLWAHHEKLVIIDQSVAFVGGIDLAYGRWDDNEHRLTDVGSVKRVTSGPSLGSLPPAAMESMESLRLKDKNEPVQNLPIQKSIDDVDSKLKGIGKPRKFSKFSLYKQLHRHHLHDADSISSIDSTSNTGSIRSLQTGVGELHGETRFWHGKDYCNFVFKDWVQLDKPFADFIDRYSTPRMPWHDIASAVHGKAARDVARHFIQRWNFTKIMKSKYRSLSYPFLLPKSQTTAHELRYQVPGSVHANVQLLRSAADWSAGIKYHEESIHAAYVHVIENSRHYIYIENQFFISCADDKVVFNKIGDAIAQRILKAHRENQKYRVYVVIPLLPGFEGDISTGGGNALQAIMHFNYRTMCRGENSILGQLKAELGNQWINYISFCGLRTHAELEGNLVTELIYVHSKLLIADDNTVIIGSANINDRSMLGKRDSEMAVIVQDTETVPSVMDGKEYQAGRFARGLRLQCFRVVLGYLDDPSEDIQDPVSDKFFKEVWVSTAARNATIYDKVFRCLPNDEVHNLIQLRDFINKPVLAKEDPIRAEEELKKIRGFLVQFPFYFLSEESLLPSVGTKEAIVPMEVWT

What is called IC50 is the midpoint of a concentration-inhibition curve. Take `CNC(=O)C(=O)N[C@@H](C)CN1CC2CC1CC21OC(=O)NN=C1c1ccc(F)cc1Br` (mixture of isomers) [Example 2-005]: the concentration for half-maximal inhibition (IC50) at full-length human PLD1 (setting [1]) was 433 nM; at full-length human PLD2 (setting [2]), 35 nM.
In the same order, the values of `CNC(=O)C(=O)N[C@@H](C)C(C#N)N1CCC2(CC1)OC(=O)NN=C2c1ccc(F)cc1Br` (mixture of isomers) [Example 2-010] are 1010 nM and 1260 nM.
In the case of `C[C@@H](CN1CCC2(CC1)OC(=O)NN=C2c1cc(C#N)ccc1Br)NC(=O)C1CCCO1` (mixture of isomers) [Example 2-048], the values for the half-inhibitory concentration (IC50) at full-length human PLD1 (setting [1]) and at full-length human PLD2 (setting [2]) were 644 nM and 1010 nM, respectively.
In the same order, the values of `C[C@@H](CN1CCC2(CC1)OC(=O)NN=C2c1cc(C#N)ccc1Br)NC(=O)C1COCCO1` (mixture of isomers) [Example 2-049] are 1740 nM and 1440 nM.
Taken in the same sequence, the figures for `C[C@@H](C[C@H]1CC[C@]2(CC1)OC(=O)NN=C2c1ccc(F)cc1Br)NC(=O)C1CCC(=O)N1` (mixture of isomers) [Example 18] were 852 nM and 157 nM.
For `CNC(=O)C(=O)N[C@@H](C)CC1CCC2(CC1)OC(=O)NN=C2c1ccncc1Br` (mixture of isomers) [Example 120], the IC50 at full-length human PLD1 (setting [1]) is 12 nM; on full-length human PLD2 (setting [2]) it was 11 nM.
For `C[C@@H](CC1CCC2(CC1)OC(=O)NN=C2c1ccncc1Br)NC(=O)c1cc(Cl)no1` (mixture of isomers) [Example 121], the IC50 on full-length human PLD1 (setting [1]) and at full-length human PLD2 (setting [2]) was < 10 nM in each case.
As to `C[C@@H](CC1CCC2(CC1)OC(=O)NN=C2c1ccncc1Br)NC(=O)c1cc2ccccc2o1` (mixture of isomers) [Example 122], the IC50 on full-length human PLD1 (setting [1]) and at full-length human PLD2 (setting [2]) was < 10 nM throughout.
For `CNC(=O)C(=O)N[C@@H](C)CC1CCC2(CC1)OC(=O)NN=C2c1ccncc1C` (mixture of isomers) [Example 125], the values for the IC50 at full-length human PLD1 (setting [1]) and at full-length human PLD2 (setting [2]) were 40 nM and 57 nM, respectively.
In the same order, the values of `Cc1cc(F)ccc1C1=NNC(=O)O[C@]12CC[C@@H](C[C@H](C)NC(=O)N1CC3CCCCC3C1)CC2` (mixture of isomers) [Example 150] are 880 nM and 640 nM.
Consider `C[C@@H](C[C@H]1CC[C@]2(CC1)OC(=O)NN=C2c1ccc(F)cc1Br)NC(=O)C(F)Cl` (mixture of isomers) [Example 278], for which the IC50 at full-length human PLD1 (setting [1]) was found to be 246 nM; at full-length human PLD2 (setting [2]), 1180 nM.
Take `CNC(=O)C(=O)NC(C)C[C@H]1CC[C@@]2(CC1)OC(=O)NN=C2c1cc(C#N)ccc1Br` (mixture of isomers) [Example 2-148]: the IC50 on full-length human PLD1 (column 1 of continuation tables 2-12 to 2-14, read-out: human PLD1 enzyme inhibitory activity IC50) turned out to be 140 nM; on full-length human PLD2 (column 2 of continuation tables 2-12 to 2-14, read-out: human PLD2 enzyme inhibitory activity IC50), 46 nM.
In the case of `C[C@@H](C[C@H]1CC[C@]2(CC1)OC(=O)NN=C2c1ccc(F)cc1Br)NC(=O)C1CC1c1ccccc1` (single isomer, unassigned) [Example 38], the IC50 was 35 nM on full-length human PLD1 (setting [1]) and 88 nM on full-length human PLD2 (setting [2]).
For the compound `C[C@@H](C[C@H]1CC[C@]2(CC1)OC(=O)NN=C2c1ccc(F)cc1Br)NC(=O)C1CC1c1ccccc1` (single isomer, unassigned) [Example 39], the IC50 on full-length human PLD1 (setting [1]) was 93 nM; at full-length human PLD2 (setting [2]), 24 nM.
Taken in the same sequence, the figures for `C[C@@H](CN1CCC2(CC1)OC(=O)NN=C2c1ccc(F)cc1)NC(=O)c1cc2cc(F)ccc2[nH]1` [Example 1] were 33 nM and < 10 nM.
Regarding `[2H]C([2H])([2H])NC(=O)C(=O)N[C@@H](C)CN1CCC2(CC1)OC(=O)NN=C2c1cc(C#N)ccc1Br` [Example 2-001], the IC50 at full-length human PLD1 (setting [1]) was 41 nM; at full-length human PLD2 (setting [2]), < 10 nM.
Taken in the same sequence, the figures for `C[C@@H](CN1CCC2(CC1)OC(=O)NN=C2c1cc(C#N)ccc1Br)NC(=O)C[C@@H](O)C(F)(F)F` [Example 2-002] were 1250 nM and 1860 nM.
Turning to `C[C@@H](CN1CCC2(CC1)OC(=O)NN=C2c1cc(C#N)ccc1Br)NC(=O)/C=C/C(F)(F)F` [Example 2-003], the IC50 is 38 nM at full-length human PLD1 (setting [1]) and 12 nM at full-length human PLD2 (setting [2]).
In general, inhibition refers to the percentage by which the read-out fell short of the control. In the case of `CNC(=O)C(=O)N[C@@H](C)C[C@]1(C#N)CC[C@@]2(CC1)OC(=O)NN=C2c1cc(OCC(F)F)ncc1Br` [Example 2-099], the inhibition at 10 µM at full-length human PLD1 (read-out: human PLD1 % inhibition at 10 μM) and at full-length human PLD1 (read-out: inhibition rate of PLD1 at 10 μM compound) was 21% each time.
`CNC(=O)C(=O)N[C@@H](C)C[C@]1(C#N)CC[C@@]2(CC1)OC(=O)N(C)N=C2c1cc(C#N)ccc1Br` [Example 2-112]: the inhibition at 10 µM on full-length human PLD2 (read-out: human PLD2 % inhibition at 10 μM) and on full-length human PLD2 (read-out: inhibition rate of PLD2 at 10 μM compound) was 39% throughout.
